Here are results for two compounds from ChEMBL document CHEMBL6134898, “In Vitro ADME Profiling of PROTACs: Successes, Challenges, and Lessons Learned from Analysis of Clinical PROTACs from a Diverse Physicochemical Space” (J Med Chem, 2025).

What is called fraction unbound is the share of the substance not bound to proteins or other matrix. The term solubility denotes the concentration that dissolves in the medium under given conditions. In general, Papp A→B refers to the apparent permeability from the apical to the basolateral side of a cell layer. As a reminder, the chromatographic logD is lipophilicity estimated from chromatographic retention.

In brackets after ≈: the same amount, converted by molar mass.

A short description of data set [1]: Blood to plasma partitioning ratio in human at 10 uM incubated for 30 mins by LC-MS/MS analysis. In kind it is ADME, cell-free. The following applies: whole blood.
Data set [2] in a line: Protein binding in mouse plasma assessed as free fraction at 5 uM incubated for 18 hrs by LC-MS/MS analysis. In kind it is ADME, cell-free.
Data set [3] in a line: Intrinsic clearance in monkey hepatocytes measured per million cells at 1 uM measured for 0.5 to 120 mins by LC-MS/MS analysis. In kind it is ADME, cell-based, Macaca mulatta, Hepatocyte. The following applies: rhesus monkey, time 0.5-120 min, read-out: CLH.
Data set [4] can be described thus: Protein binding in dog plasma assessed as free fraction at 5 uM incubated for 18 hrs by LC-MS/MS analysis. In kind it is ADME, cell-free, Canis lupus familiaris.
Data set [5] is described as follows: Solubility of compound in FaSSIF at pH 6.5 measured after 24 hrs by UPLC analysis. In kind it is physicochemical.
Data set [6] can be described thus: Stability in human plasma at 5 uM incubated for 18 hrs by LC-MS/MS analysis. The following applies: read-out: Stability. It is filed as ADME, cell-free.
The nature of data set [7]: Intrinsic clearance in rat hepatocytes measured per million cells at 1 uM measured for 0.5 to 120 mins by LC-MS/MS analysis. Conditions: time 0.5-120 min, read-out: CLH. In kind it is ADME, cell-based, Hepatocyte.
Data set [8] is described as follows: Apparent permeability across apical to basal side in human Caco-2 cells at 1 uM incubated for 120 mins by LC-MS/MS analysis. It is filed as ADME, cell-based. (Passage across Caco-2 layers is used to estimate intestinal permeability.)
Data set [9] is described as follows: Intrinsic clearance in human hepatocytes measured per million cells at 1 uM measured for 0.5 to 120 mins by LC-MS/MS analysis. The following applies: time 0.5-120 min, read-out: CLH. It is filed as ADME, cell-based, Hepatocyte.
Data set [10] in a line: Intrinsic clearance in mouse hepatocytes measured per million cells at 1 uM measured for 0.5 to 120 mins by LC-MS/MS analysis. It is filed as ADME, cell-based, Hepatocyte. The following applies: time 0.5-120 min, read-out: CLH.
Data set [11] in a line: Protein binding in monkey plasma assessed as free fraction at 5 uM incubated for 18 hrs by LC-MS/MS analysis. In kind it is ADME, cell-free, Macaca mulatta. The following applies: rhesus monkey.
Data set [12] is described as follows: Protein binding in rat plasma assessed as free fraction at 5 uM incubated for 18 hrs by LC-MS/MS analysis. In kind it is ADME, cell-free.
Data set [13] in a line: Apparent permeability across apical to basal side in human Caco-2 cells at 1 uM incubated for 120 mins followed by ACN addition by LC-MS/MS analysis. In kind it is ADME, cell-based.
A short description of data set [14]: Blood to plasma partitioning ratio in dog at 10 uM incubated for 30 mins by LC-MS/MS analysis. In kind it is ADME, cell-free, Canis lupus familiaris. Conditions: whole blood.
A short description of data set [15]: Protein binding in rat hepatocytes assessed as free fraction at 5 uM incubated for 18 hrs by LC-MS/MS analysis. It is filed as ADME, cell-based, Hepatocyte.
A short description of data set [16]: Solubility of compound in FeSSIF at pH 5 measured after 24 hrs by UPLC analysis. In kind it is physicochemical.
A short description of data set [17]: Intrinsic clearance in dog hepatocytes measured per million cells at 1 uM measured for 0.5 to 120 mins by LC-MS/MS analysis. In kind it is ADME, cell-based, Canis lupus familiaris, Hepatocyte. Conditions: time 0.5-120 min, read-out: CLH.
Data set [18] is described as follows: Lipophilicity, LogD of compound by Chromatography. It is filed as physicochemical.
Data set [19] in a line: Blood to plasma partitioning ratio in rat at 10 uM incubated for 30 mins by LC-MS/MS analysis. It is filed as ADME, cell-free. Conditions: whole blood.
A short description of data set [20]: Protein binding in human plasma assessed as free fraction at 5 uM incubated for 18 hrs by LC-MS/MS analysis. It is filed as ADME, cell-free.
Data set [21] can be described thus: Solubility of compound in SGF at pH 1.2 measured after 24 hrs by UPLC analysis. In kind it is physicochemical.
Data set [22] can be described thus: Protein binding in human plasma assessed as compound recovery at 5 uM incubated for 18 hrs by LC-MS/MS analysis. In kind it is ADME, cell-free. The following applies: read-out: Drug recovery.

As to `CN1CCN([C@@H]2CCCN(c3cnc(C(N)=O)c(Nc4ccc(C5CCN(CC6CCN(c7ccc(C(=O)N[C@H]8CCC(=O)NC8=O)nc7)CC6)CC5)cc4)n3)C2)C1=O` [NX-5948], the blood plasma ratio at 0.5 h, 10 µM is 1 in data set [1], 2.6 in data set [14] and 1.1 in [19]. Also, the fraction unbound at 18 h, 5 µM in data set [2] came out at 0.024; in [4], 0.067; in [11], 0.094; in data set [12], 0.073; in [15] it was 0.178; in [20], 0.024. In addition, the hepatocyte CLint at 1 µM in data set [3] was 16 µL/min/1e6 cells; in data set [7] it was 3 µL/min/1e6 cells; in [9], 5 µL/min/1e6 cells; in data set [10], 4 µL/min/1e6 cells; in data set [17], 3 µL/min/1e6 cells. For the same compound, the figures for the solubility at 24 h in data set [5], in data set [16] and in data set [21] were 2.5 µg/mL (≈ 3.1 µM), 51 µg/mL (≈ 63.2 µM) and 559 µg/mL (≈ 693 µM), respectively. In addition, the remaining at 18 h, 5 µM in [6] came to 43%. The figures for the Papp A→B at 2 h, 1 µM in [8] and in data set [13] were 2.8 ×10⁻⁶ cm/s and 8.7 ×10⁻⁶ cm/s, respectively. Besides, the chromatographic logD in data set [18] stood at 2.2. Further, the recovery at 18 h, 5 µM in [22] amounted to 40%.
With `O=C1CC[C@H](N2Cc3cc(N4CCN(CC5CCN(c6ccc([C@@H]7c8ccc(O)cc8CC[C@@H]7c7ccccc7)cc6)CC5)CC4)ccc3C2=O)C(=O)N1` [VEPDEGESTRANT], the blood plasma ratio at 0.5 h, 10 µM was 0.7 in [1], 0.5 in [14] and 0.6 in data set [19]. The fraction unbound at 18 h, 5 µM in [2] is below 0.001; in data set [4] it was below 0.001; in data set [11], below 0.002; in [12], below 0.001; in [15], below 0.001; in data set [20], below 0.003. The hepatocyte CLint at 1 µM in [3] was found to be 5 µL/min/1e6 cells; in [7] it was 9 µL/min/1e6 cells; in [9], 3 µL/min/1e6 cells; in data set [10], 23 µL/min/1e6 cells; in data set [17], 3 µL/min/1e6 cells. The solubility at 24 h in data set [5] amounted to 2.6 µg/mL (≈ 3.59 µM); in [16] it was 274 µg/mL (≈ 378 µM); in data set [21] it was 230 µg/mL (≈ 318 µM). Besides, the remaining at 18 h, 5 µM in data set [6] is 77%. In addition, the Papp A→B at 2 h, 1 µM in [8] and in data set [13] was below 0.1 ×10⁻⁶ cm/s each time. The compound further displayed a chromatographic logD in data set [18] of 5.7. Also, the recovery at 18 h, 5 µM in data set [22] came out at 77%.
